What all share (assay): growth of human tumour cells (NCI), 48 h
The subject of assay [1] is HL-60(TB) leukemia.
The test system of assay [2] is SF-295 CNS.
Assay [3] deals with SNB-78 CNS.
Assay [4] deals with DMS 273 small cell lung.
The test system of assay [5] is UACC-257 melanoma.
For assay [6], the system named is RPMI-8226 leukemia.
For assay [7], the system named is MCF7 breast.
Assay [8] relates to KM20L2 colon.
In assay [9] the test system is M14 melanoma.
In assay [10] the test system is PC-3 prostate.
For assay [11], the system named is MDA-N.
Assay [12] has as its system DU-145 prostate.

The structures appear in SMILES notation.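 Grown in 96-well plates, cells were treated for 48 hours with each compound at five concentrations. Insufficient inhibition: endpoint recorded as highest concentration tested. TGI: total growth inhibition.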

Regarding `CCOC(=O)/C(O)=C1\C(=O)N(C)C(=O)C1c1ccc(OC)c(OC)c1` (configuration not stated), the TGI in [1], in [2], in assay [3], in assay [4], in [5] and in assay [6] was over 100 µM each time. In addition, the TGI in assay [7] and in assay [8] was over 100 µM in each case.

In the case of `O=C1C(Br)=CC2([N+](=O)[O-])CCNc3c(O)c4c5c(c3C2=C1Br)=NCCC=5C=N4` (configuration not stated), the TGI in [1] turned out to be 0.454 µM; in [2], 4.63 µM; in assay [3] it was 5.48 µM; in [4], 6.92 µM; in assay [5], 0.887 µM; in assay [6], 0.761 µM. Moreover, the TGI is 1.72 µM in assay [7] and 10.4 µM in assay [8].

For `CCCCCc1cc(OC(=O)c2c(O)cc(OC)cc2CCCCC)cc(O)c1C(=O)O`, the TGI was found to be 60.2 µM in [1]; 35.4 µM in [2]; 57.6 µM in assay [3]; 32.4 µM in assay [4]; 71.2 µM in [6]; 38.1 µM in [9]. Also, the TGI in assay [8] came to 33.3 µM.

Consider `O=C(c1ccc(Cl)cc1)c1ccc(OCC(=O)N2CCN(c3ccccc3)CC2)cc1`, for which the TGI in [1], in [2], in assay [3], in [5], in assay [6] and in assay [9] was over 100 µM each time. For the same compound, the TGI in assay [8] is over 100 µM.

On to `COC(=O)C12Oc3ccc(-c4ccc5c(c4O)C(=O)C4=CCC(C)C(O)C4(C(=O)OC)O5)c(O)c3C(=O)C1=CCC(C)C2O` (configuration not stated), for which the TGI in assay [1] was found to be 5.1 µM; in [2], 6.05 µM; in [3], 17.4 µM; in [4], 3.25 µM; in assay [5], 4.95 µM; in assay [9] it was 3.46 µM. The compound also showed a TGI in assay [8] of 2.93 µM.

`COc1ccc2c3c1OC1CC(O)C=CC31CCN(C)C2` (configuration not stated): the TGI in [1] was over 150 µM; in assay [2] it was over 150 µM; in assay [3], over 117 µM; in assay [4], over 150 µM; in assay [5] it was over 150 µM; in [6], over 150 µM. Further, the TGI in assay [7] was over 48.8 µM; in [8], over 150 µM.

Take `CC(=O)C1CC(C)=CCC12C(=O)Nc1ccccc12` (configuration not stated): the TGI in assay [1], in [2], in [4], in assay [6], in [9] and in assay [8] was over 100 µM throughout.

As to `COc1cc(OC)c2c(O)cc(CC(C)O)cc2c1` (configuration not stated), the TGI in [1], in [2], in assay [3], in assay [4], in assay [5] and in assay [6] was over 100 µM throughout. Moreover, the TGI in assay [9] and in assay [8] was over 100 µM each time.

Consider `COC1=CC(=O)c2ccccc2C1(CCC=C(C)C)C1=NC(C)(C)CO1` (configuration not stated), for which the TGI in assay [1] was 62.9 µM; in [2] it was over 100 µM; in assay [4], over 100 µM; in assay [5], over 100 µM; in assay [6], over 100 µM; in [9], over 100 µM. In addition, in assay [8], the TGI is over 100 µM.

As for `N/N=C(\C(=O)Nc1c(Cl)cc([N+](=O)[O-])cc1Cl)C(c1cnc2ccc([N+](=O)[O-])cc2n1)[N+](=O)[O-]` (configuration not stated), the TGI in [1], in assay [2], in assay [3], in assay [4], in assay [5] and in assay [6] was over 100 µM throughout. In addition, in assay [8], the TGI was over 100 µM.

As to `CCOC/N=C(/N)NC#N`, the TGI in [1], in assay [2], in assay [3], in [4], in assay [5] and in assay [6] was over 100 µM each time. Further, the TGI in assay [9] and in [8] was over 100 µM in each case.

For `CC(C)(CO)CNc1cc(=O)[nH]c(N)n1`, the TGI in [1], in assay [2], in assay [10], in assay [11], in [5] and in assay [6] was over 100 µM each time. Besides, the TGI in [7], in assay [12] and in [9] was over 100 µM in each case.

Take `CCOC(C[Se]CC(OCC)OCC)OCC`: the TGI was 76.5 µM in assay [1]; over 100 µM in assay [2]; over 100 µM in assay [10]; over 100 µM in assay [11]; over 100 µM in [5]; over 100 µM in assay [6]. In addition, the values for the TGI in assay [7], in assay [12] and in [9] were over 100 µM, 85.7 µM and over 100 µM, respectively.

In the case of `COc1ccc2[nH]c3c(c2c1)CCN(C)CC3`, the TGI in [1], in assay [2], in assay [3], in [4], in [5] and in [6] was over 100 µM each time. In addition, the TGI in assay [9] and in assay [8] was over 100 µM in each case.

For the compound `Cc1ccc(C(=O)N(C2CCCCC2)C2CCCCC2)cc1N=NN(C)C`, the TGI stood at 23.7 µM in assay [1]; 23.5 µM in assay [2]; 22.2 µM in assay [10]; 28.3 µM in [11]; 31.4 µM in [3]; 31.4 µM in assay [4]. The TGI in [5] was 28 µM; in assay [6] it was over 100 µM; in [7] it was 29.7 µM; in assay [9] it was 32.6 µM.

These data come from PubChem BioAssay (NCI).
